From publication PMC13379085 (PLOS Neglected Tropical Diseases, 2026)

What was measured:
[1] = tested on: THP-1 macrophages; experiment: MTT viability of THP-1 macrophages (host cell cytotoxicity); type: cell-based; conditions: 72 hr incubation up to 300µM
Method: Human monocytes, THP-1 (ATCC, TIB002) were used as host cells for Leishmania infection and to assess drug cytotoxicity. The cells were cultured at 37C, 5% CO2 in RPMI medium (ATCC) supplemented with 10% FBS, 1% Penicillin/Streptomycin and 0.05 mM of β-mercaptoethanol. Cells were used in experiments up to passage 10.
Effect of the compounds on THP-1 cell viability measured using thiazolyl blue tetrazolium bromide which measures cell metabolic activity (MTT). […] Macrophages were then treated with compounds resuspended in RPMI media (1–50 µM) for 24 hours. Media was replaced with thiazolyl blue tetrazolium bromide solubilized in RPMI media (0.5 mg/mL) and incubated at 37°C for 2 hours. The reduced formazan crystals were solubilized with isopropyl alcohol and the absorbance of the resulting solution was measured at 560 nm with a background subtraction at 670 nm. […] This process was repeated with a 72-hr incubation and extended concentration range (1–300 µM) for select compounds.

[2] = tested on: Extracellular L. donovani promastigotes; experiment: Resazurin viability assay of extracellular L. donovani promastigotes; type: cell-based, Leishmania donovani; conditions: for 53 strain not specified
Method: (§1) The effect of compounds on extracellular promastigotes was evaluated using a resazurin-based assay as described previously. In short, late log phase Leishmania promastigotes were seeded in a 96 well plate at 1 x 10^5 parasites per well and treated with drugs (0.5 – 200 µM) for 72 hours at 25°C. Ten microliters of Resazurin (0.02% w/v) were added to the treated parasites to achieve a final concentration of 0.002% w/v and incubated for 24 hours. Viability of the promastigotes was assessed by fluorescence (excitation 544 nm, emission 590 nm, SpectraMax M2, Molecular Devices).

[3] = tested on: Intracellular L. donovani amastigotes; experiment: Luminescence-based assay of intracellular L. donovani burden in THP-1 macrophages; type: cell-based, Leishmania donovani
Method: Luminescent strains, L. donovani LV82 expressing firefly luciferase (a kind gift from Dr. Abhay Satoskar, Ohio State University) and L. mexicana (NR-51210, ATCC) expressing renilla luciferase were used to evaluate the effect of the compounds in intracellular and extracellular conditions. Wild-type L. donovani LV82 (ATCC) were used for Giemsa staining based experiments. All parasites were cultured at 25°C and 5% CO2 in M199 media (Corning) supplemented with 10% FBS, 1% Penicillin/Streptomycin, and Hemin (0.01 mg/mL), and used in experiments up to passage 15.
THP-1 cells were seeded in a 96 well plate (25,000 cells/well) overnight then differentiated with 150 nM phorbol 12-myristate 13-acetate (PMA) over 72 hours (S1 Fig). […] Briefly, promastigotes of a known cell density were resuspended in RPMI media (with 10% FBS, 1% P/S and 0.05 mM β-mercaptoethanol) and incubated with adhered THP-1 cells over 18 hours. After infection, cells were washed three times with fresh media to remove extracellular promastigotes.
Infected macrophages were then treated with compounds solubilized in DMSO ranging from 0.1-10 µM in concentrations. After 72 hours of treatment, the viability of the amastigotes within macrophages was determined using Promega firefly luminescence assay (Cat E1500) or Pierce Renilla luciferase assay (Cat 16166) for L. donovani and L. mexicana strains, respectively. Briefly, media was removed, and cells were lysed with the assay lysis buffer. The luciferase substrate was then incubated with the lysed cells for 10 min at room temperature and luminescence of live Leishmania was measured in a white opaque 96 well plate using a Biotek plate reader.

[4] = target: T1, lysozyme (Homo sapiens, UniProt P61626); experiment: Fluorometric lysozyme activity assay; type: biochemical; set-up: purchased Sigma L1667; conditions: lysozyme 1mg/mL; 0, 1, and 50 µM 197
T1 sequence (P61626 19-148): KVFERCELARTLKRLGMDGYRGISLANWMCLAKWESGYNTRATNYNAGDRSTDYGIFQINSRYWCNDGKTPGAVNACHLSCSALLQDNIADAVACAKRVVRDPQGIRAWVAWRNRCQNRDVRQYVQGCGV
Method: Recombinant human lysozyme protein (1mg/mL, Sigma, Cat # L1667) was incubated with 0 µM, 1 µM or 50 µM 197. Lysozyme activity was measured via a fluorometric assay (Abcam, Cat # ab211113) according to manufacturer’s protocol.

[5] = tested on: LV82 L. donovani; experiment: Giemsa staining of intracellular L. donovani in BMDMs from wildtype C57BL/6 or lysozyme knockout mice; type: cell-based, Leishmania donovani; conditions: 72-hour incubation
Description: B6.129P2-Lyz2^tm1(cre)Ifo/J mice (stock #004781, herein termed ‘Lys K/O’) were obtained from Jackson Laboratory. This strain has a nuclear-localized Cre recombinase inserted into the first coding ATG of the lysozyme 2 gene (Lyz2) which eliminates endogenous Lyz2 gene function. Wildtype C57BL6/J mice (stock #000664) were obtained as a control.
Bone marrow derived macrophages (BMDMs) were isolated from both mice and cultured as described above in “Image-based Evaluation of Intracellular Anti-Leishmanial Activity”. BMDMs were seeded onto glass cover slips, infected with LV82 L. donovani at a multiplicity of infection of 1:10. Cells were washed to remove extracellular promastigotes and treated with compounds (197, amphotericin B) for a 72-hour incubation. BMDM cells were then washed with phosphate buffered saline, fixed with ice-cold methanol, and stained with Giemsa (5% v/v in water). The cover slips with stained cells are mounted onto glass slides and imaged on EVOS XL (100X, Thermo Fisher Scientific). Leishmania amastigotes per 100 macrophages were determined in a blinded manner.

[6] = tested on: Intracellular L. mexicana amastigotes; experiment: microbe, parasite or virus in culture; type: cell-based, Leishmania mexicana; conditions: bone marrow derived macrophages, Giemsa staining, 72-hour incubation
Method: Bone marrow derived macrophages (BMDMs) were isolated from BALB/c mice and cultured as previously described. […] Completely differentiated BMDMs are obtained after 7 days of culture with media change every 2 days. Harvested cells are seeded onto 10 mm glass cover slips at 5 x 10^5 cells/ well of a 24 well plate in DMEM media (without LCM) and allowed to adhere overnight. BMDM cells are then infected overnight with LV82 L. donovani or L. mexicana (NR-51210) at a multiplicity of infection of 10. After infection, cells were washed three times with fresh media to remove extracellular promastigotes and treated with compounds for a 72-hour incubation. BMDM cells were then washed with phosphate buffered saline, fixed with ice-cold methanol, and stained with Giemsa (5% v/v in water). The cover slips with stained cells are mounted onto glass slides and imaged on EVOS XL (100X, Thermo Fisher Scientific). Leishmania amastigotes per 100 macrophages were determined in a blinded manner.

[7] = tested on: Extracellular L. mexicana promastigotes; experiment: Resazurin viability assay of extracellular L. mexicana promastigotes; type: cell-based, Leishmania mexicana
Method: as §1

SMILES: O=C(CNCc1cccc(F)c1)Nc1ccc(-n2cc(C(F)(F)F)nc2-c2ccc(-c3ccc(C(F)(F)F)cc3)cc2)cc1 [Compound 197]
- reduction in macrophage viability [1]: Neither compound had any reduction
- direct effects on extracellular promastigote viability [2]: some direct reduction
- Selectivity 24h LC50/ Lum IC50 ([3]; host-directed effect vs cytotoxicity in THP-1): >20.6
- intracellular activity (primary screen) ([3]; imidazole series): retaining potent intracellular activity
- lysozyme activity [4]: dose-dependent increase
- anti-leishmanial activity in WT and Lys K/O BMDMs [5]: notably decreased in Lys K/O BMDMs
- IC50 ([6]; Leishmania mexicana, Macrophage, 72 h): < 2000 nM
- IC50 [6]: 1700 nM
- effect on L. mexicana extracellular promastigote viability [7]: no effect
- MIC50 ([7]; Leishmania mexicana, 72-hour incubation): > 200 µM
